Reference: PubChem BioAssay AID330 (DTP/NCI, 2004)
Values joined by “and” are separate entries in the source; they are usually repeats but may differ in a detail not shown here. Identical values can stand only once. Inconclusive results and toxic doses are left out. Rule for the calls: active = survival T/C of 150% or more; inactive = T/C below 125% in these data.

Tested on: P388 leukemia ip, CD2F1 mice, survival T/C
Test: NCI In Vivo Anticancer Drug Screen. Data for tumor model P388 Leukemia (intraperitoneal) in CD2F1 (CDF1) mice
Settings: endpoint: median survival time, higher = longer survival
In short: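 Mice carrying the transplanted tumor received test compound or vehicle. Survival was recorded in each group, and the value is the treated-group measurement divided by that of the vehicle-treated control group.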

[1] = dose: 25.0 mg/kg/injection, schedule: Q01DX005 (ip), vehicle: saline with Tween-80
[2] = dose: 50.0 mg/kg/injection, schedule: Q01DX005 (ip), vehicle: saline with Tween-80
[3] = dose: 100.0 mg/kg/injection, schedule: Q01DX005 (ip), vehicle: saline with Tween-80
[4] = dose: 200.0 mg/kg/injection, schedule: Q01DX005 (ip), vehicle: saline with Tween-80
[5] = dose: 50.0 mg/kg/injection, schedule: Q01DX005 (ip), vehicle: Klucel (hydroxypropylcellulose) (HPC)
[6] = dose: 100.0 mg/kg/injection, schedule: Q01DX005 (ip), vehicle: Klucel (hydroxypropylcellulose) (HPC)
[7] = dose: 200.0 mg/kg/injection, schedule: Q01DX005 (ip), vehicle: Klucel (hydroxypropylcellulose) (HPC)
[8] = dose: 50.0 mg/kg/injection, schedule: Q01DX009 (ip), vehicle: Klucel (hydroxypropylcellulose) (HPC)
[9] = dose: 100.0 mg/kg/injection, schedule: Q01DX009 (ip), vehicle: Klucel (hydroxypropylcellulose) (HPC)
[10] = dose: 200.0 mg/kg/injection, schedule: Q01DX009 (ip), vehicle: Klucel (hydroxypropylcellulose) (HPC)
[11] = dose: 12.5 mg/kg/injection, schedule: Q01DX009 (ip), vehicle: saline
[12] = dose: 25.0 mg/kg/injection, schedule: Q01DX009 (ip), vehicle: saline
[13] = dose: 50.0 mg/kg/injection, schedule: Q01DX009 (ip), vehicle: saline with Tween-80
[14] = dose: 50.0 mg/kg/injection, schedule: Q01DX009 (ip), vehicle: saline
[15] = dose: 50.0 mg/kg/injection, schedule: Q01DX009 (ip), vehicle: other
[16] = dose: 100.0 mg/kg/injection, schedule: Q01DX009 (ip), vehicle: other
[17] = dose: 200.0 mg/kg/injection, schedule: Q01DX009 (ip), vehicle: other

Measured: T/C

CC12CCC(C=C1N1CCOCC1)C(C)(C)O2 (centres undefined)
inactive: [1] 97 % of control | dose: 25.0 mg/kg/injection, schedule: Q01DX005 (ip), vehicle: saline 100 % of control | [2] 103 % of control | dose: 50.0 mg/kg/injection, schedule: Q01DX005 (ip), vehicle: saline 102 % of control | [3] 94 % of control | dose: 100.0 mg/kg/injection, schedule: Q01DX005 (ip), vehicle: saline 100 % of control | [4] 94 % of control | dose: 200.0 mg/kg/injection, schedule: Q01DX005 (ip), vehicle: saline 99 % of control

CC1(C)CC(=O)C(C(c2ccc3c(c2)OCO3)C2C(=O)CC(C)(C)CC2=O)C(=O)C1
inactive: [5] 91 % of control | [6] 101 % of control | [7] 104 % of control

C(=N\Nc1c2c(nc3ccccc13)CCCC2)/c1ccc2c(c1)OCO2
inactive: dose: 3.12 mg/kg/injection, schedule: Q01DX005 (ip), vehicle: Klucel (hydroxypropylcellulose) (HPC) 109 % of control | dose: 6.25 mg/kg/injection, schedule: Q01DX005 (ip), vehicle: Klucel (hydroxypropylcellulose) (HPC) 95 % of control | dose: 12.5 mg/kg/injection, schedule: Q01DX005 (ip), vehicle: Klucel (hydroxypropylcellulose) (HPC) 90 % of control and 95 % of control

Cc1cc(NC(=S)SCc2ccc3c(c2)OCO3)ccc1Cl
inactive: [8] 112 % of control | dose: 50.0 mg/kg/injection, schedule: Q01DX009 (ip), vehicle: suspension in saline 91 % of control | [9] 122 % of control | dose: 100.0 mg/kg/injection, schedule: Q01DX009 (ip), vehicle: suspension in saline 94 % of control | [10] 114 % of control | dose: 200.0 mg/kg/injection, schedule: Q01DX009 (ip), vehicle: suspension in saline 90 % of control

O=C1C(CCl)=C(c2ccccc2)S(=O)(=O)c2ccccc21
inactive: [2] 109 % of control | [3] 114 % of control | [4] 114 % of control

C=CC(=NC(C)(C)C)Nc1ccccc1C(=O)OC
inactive: [11] 108 % of control | [12] 107 % of control | [13] 101 % of control | [14] 108 % of control

COC(=O)/C=C/CCOC1CCCCO1 (centres undefined)
inactive: [15] 108 % of control | [16] 112 % of control | [17] 107 % of control

CCN(CC)C(=O)c1cc2c(=O)c3c(ccc4ccccc43)oc2n(C)c1=O
inactive: [2] 98 % of control | [3] 90 % of control | [4] 90 % of control

O=[N+]([O-])c1ccc2c(c1)SC1=NN3C(O)COC(OCc4ccccc4)C3N12 (centres undefined)
inactive: dose: 100.0 mg/kg/injection, schedule: Q04DX002 (ip), vehicle: saline 97 % of control | dose: 200.0 mg/kg/injection, schedule: Q04DX002 (ip), vehicle: saline 100 % of control | dose: 400.0 mg/kg/injection, schedule: Q04DX002 (ip), vehicle: saline 93 % of control

Cc1ccc(S(=O)(=O)/N=S(\C)CC(C)Cl)cc1 (centres undefined)
inactive: [8] 100 % of control | [9] 105 % of control | [10] 105 % of control

Nc1nc(=O)cnn1C1OC(CO)C(O)C1O (centres undefined)
inactive: dose: 100.0 mg/kg/injection, schedule: Q01DX001 (ip), vehicle: saline with Tween-80 98 % of control | dose: 200.0 mg/kg/injection, schedule: Q01DX001 (ip), vehicle: saline with Tween-80 97 % of control | dose: 400.0 mg/kg/injection, schedule: Q01DX001 (ip), vehicle: saline with Tween-80 103 % of control

COc1cc(Br)cc(C(=O)N2CCc3ccccc32)c1OC
inactive: dose: 25.0 mg/kg/injection, schedule: Q01DX009 (ip), vehicle: other 99 % of control | [15] 96 % of control | [16] 96 % of control | [17] 96 % of control | dose: 400.0 mg/kg/injection, schedule: Q01DX009 (ip), vehicle: other 87 % of control

O=CNc1ccc(O)cc1
inactive: dose: 100.0 mg/kg/injection, schedule: Q01DX009 (ip), vehicle: saline with Tween-80 100 % of control | dose: 200.0 mg/kg/injection, schedule: Q01DX009 (ip), vehicle: saline with Tween-80 109 % of control | dose: 400.0 mg/kg/injection, schedule: Q01DX009 (ip), vehicle: saline with Tween-80 118 % of control

S=P1(Oc2ccccc2)Nc2cccc3cccc(c23)N1
inactive: dose: 25.0 mg/kg/injection, schedule: Q01DX005 (ip), vehicle: Klucel (hydroxypropylcellulose) (HPC) 98 % of control | [5] 106 % of control | [6] 102 % of control | [7] 103 % of control

COc1ccc(OC)c(/C=C/c2cnnc3ccccc23)c1
inactive: dose: 18.75 mg/kg/injection, schedule: Q04DX003 (ip), vehicle: Klucel (hydroxypropylcellulose) (HPC) 100 % of control | dose: 37.5 mg/kg/injection, schedule: Q04DX003 (ip), vehicle: Klucel (hydroxypropylcellulose) (HPC) 111 % of control | dose: 75.0 mg/kg/injection, schedule: Q04DX003 (ip), vehicle: Klucel (hydroxypropylcellulose) (HPC) 100 % of control | dose: 150.0 mg/kg/injection, schedule: Q04DX003 (ip), vehicle: Klucel (hydroxypropylcellulose) (HPC) 106 % of control | dose: 300.0 mg/kg/injection, schedule: Q04DX003 (ip), vehicle: Klucel (hydroxypropylcellulose) (HPC) 103 % of control

CNCC1CCCCC1NC (centres undefined)
inactive: dose: 50.0 mg/kg/injection, schedule: Q04DX003 (ip), vehicle: saline 99 % of control | dose: 100.0 mg/kg/injection, schedule: Q04DX003 (ip), vehicle: saline 97 % of control | dose: 200.0 mg/kg/injection, schedule: Q04DX003 (ip), vehicle: saline 96 % of control

CN(C)/N=N/c1ccn[nH]1
inactive: dose: 3.12 mg/kg/injection, schedule: Q01DX005 (ip), vehicle: saline with Tween-80 121 % of control | dose: 3.12 mg/kg/injection, schedule: Q01DX009 (ip), vehicle: saline with Tween-80 104 % of control | dose: 3.13 mg/kg/injection, schedule: Q01DX009 (ip), vehicle: saline 97 % of control | dose: 6.25 mg/kg/injection, schedule: Q01DX005 (ip), vehicle: saline with Tween-80 121 % of control | dose: 6.25 mg/kg/injection, schedule: Q01DX009 (ip), vehicle: saline with Tween-80 107 % of control | dose: 6.25 mg/kg/injection, schedule: Q01DX009 (ip), vehicle: saline 87 % of control | dose: 12.5 mg/kg/injection, schedule: Q01DX005 (ip), vehicle: saline with Tween-80 118 % of control | [11] 92 % of control | [1] 121 % of control | dose: 25.0 mg/kg/injection, schedule: Q01DX009 (ip), vehicle: saline with Tween-80 121 % of control | [12] 113 % of control | [13] 122 % of control | [14] 101 % of control

CCOC(=O)NC(=S)Nc1ccn(C)c1
inactive: dose: 50.0 mg/kg/injection, schedule: Q04DX003 (ip), vehicle: saline with Tween-80 99 % of control and 101 % of control | dose: 100.0 mg/kg/injection, schedule: Q04DX003 (ip), vehicle: saline with Tween-80 100 % of control and 94 % of control and 97 % of control | dose: 200.0 mg/kg/injection, schedule: Q04DX003 (ip), vehicle: saline with Tween-80 100 % of control | dose: 400.0 mg/kg/injection, schedule: Q04DX003 (ip), vehicle: saline with Tween-80 98 % of control and 103 % of control and 97 % of control
